Source: ChEMBL document CHEMBL1201862, “PubChem BioAssay data set” (2004)
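Protocol summary: plate cells (96-well), add compound at 5 concentrations, incubate 48 h, interpolate endpoints linearly. GI50 = concentration required for 50% inhibition of growth.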 Calls of active or inactive are those of the source. Rule as the data show it: active = GI50 up to about 1.1 µM and inactive = higher.

Key:
Assay in all cases: NCI-60 cell line screen, 48 h
A498 = tested on: A498
COLO 205 = tested on: COLO 205
RXF 393 = tested on: RXF 393
MCF7 = tested on: MCF7
HL-60 = tested on: HL-60
UO-31 = tested on: UO-31
PC-3 = tested on: PC-3
NCI/ADR-RES = tested on: NCI/ADR-RES
SK-MEL-2 = tested on: SK-MEL-2
T47D = tested on: T47D
RPMI-8226 = tested on: RPMI-8226
SF-295 = tested on: SF-295
BT-549 = tested on: BT-549
HOP-62 = tested on: HOP-62
SK-MEL-5 = tested on: SK-MEL-5
SNB-75 = tested on: SNB-75
NCI-H460 = tested on: NCI-H460
EKVX = tested on: EKVX
SR = tested on: SR
LOX IMVI = tested on: LOX IMVI
SN12C = tested on: SN12C
SF-268 = tested on: SF-268
NCI-H226 = tested on: NCI-H226
NCI-H522 = tested on: NCI-H522
NCI-H23 = tested on: NCI-H23
SK-OV-3 = tested on: SK-OV-3
HOP-92 = tested on: HOP-92
HCT-116 = tested on: HCT-116
OVCAR-8 = tested on: OVCAR-8
A549 = tested on: A549
IGROV-1 = tested on: IGROV-1
ACHN = tested on: ACHN
K562 = tested on: K562
UACC-62 = tested on: UACC-62
TK-10 = tested on: TK-10
CAKI-1 = tested on: CAKI-1
HCT-15 = tested on: HCT-15
U-251 = tested on: U-251
HT-29 = tested on: HT-29
786-0 = tested on: 786-0
UACC-257 = tested on: UACC-257
MOLT-4 = tested on: MOLT-4
KM12 = tested on: KM12
CCRF-CEM = tested on: CCRF-CEM
HCC 2998 = tested on: HCC 2998
SW-620 = tested on: SW-620
MDA-MB-231 = tested on: MDA-MB-231
SNB-19 = tested on: SNB-19
Hs-578T = tested on: Hs-578T
OVCAR-3 = tested on: OVCAR-3
OVCAR-4 = tested on: OVCAR-4
DU-145 = tested on: DU-145
MDA-MB-435 = tested on: MDA-MB-435
SK-MEL-28 = tested on: SK-MEL-28
MDA-N = tested on: MDA-N
OVCAR-5 = tested on: OVCAR-5
M14 = tested on: M14
SF-539 = tested on: SF-539

In the case of `COC1=CC(=O)C2=C(C1=O)[C@H]1CC[C@]3(C)[C@@H](O)CC[C@H]3[C@@H]1CC2`, the GI50 (A498) was 52.8 µM (inactive), the GI50 (COLO 205) was 10.7 µM (inactive) and the GI50 (RXF 393) was 20.8 µM (inactive). For the same compound, the GI50 (MCF7) was 17 µM (inactive), the GI50 (HL-60) was 13 µM (inactive) and the GI50 (UO-31) was 20.7 µM (inactive). For the same compound, the GI50 (PC-3) was 16.4 µM (inactive), the GI50 (NCI/ADR-RES) was 27.5 µM (inactive) and the GI50 (SK-MEL-2) was 13.9 µM (inactive). The GI50 (T47D) was 13.8 µM (inactive), the GI50 (RPMI-8226) was 19.3 µM (inactive) and the GI50 (SF-295) was 16.7 µM (inactive). For the same compound, the GI50 (BT-549) was 17.9 µM (inactive), the GI50 (HOP-62) was 16.2 µM (inactive) and the GI50 (SK-MEL-5) was 15.5 µM (inactive). The GI50 (SNB-75) was 17.9 µM (inactive), the GI50 (NCI-H460) was 18.3 µM (inactive) and the GI50 (EKVX) was 16.8 µM (inactive). The GI50 (SR) was 23.3 µM (inactive), the GI50 (LOX IMVI) was 19.8 µM (inactive) and the GI50 (SN12C) was 17 µM (inactive). The GI50 (SF-268) was 17.3 µM (inactive), the GI50 (NCI-H226) was 17.7 µM (inactive) and the GI50 (NCI-H522) was 17.9 µM (inactive). The GI50 (NCI-H23) was 23.7 µM (inactive), the GI50 (SK-OV-3) was 45 µM (inactive) and the GI50 (HOP-92) was 21.6 µM (inactive). For the same compound, the GI50 (HCT-116) was 17 µM (inactive), the GI50 (OVCAR-8) was 17.8 µM (inactive) and the GI50 (A549) was 18.4 µM (inactive). The GI50 (IGROV-1) was 21.9 µM (inactive), the GI50 (ACHN) was 18 µM (inactive) and the GI50 (K562) was 28.9 µM (inactive). The GI50 (UACC-62) was 17.5 µM (inactive), the GI50 (TK-10) was 27.9 µM (inactive) and the GI50 (CAKI-1) was 25 µM (inactive). For the same compound, the GI50 (HCT-15) was 18 µM, the GI50 (U-251) was 17 µM (inactive) and the GI50 (HT-29) was 4.71 µM (inactive). For the same compound, the GI50 (786-0) was 19.5 µM (inactive), the GI50 (UACC-257) was 16.4 µM (inactive) and the GI50 (MOLT-4) was 3.48 µM (inactive). The GI50 (KM12) was 18.4 µM (inactive), the GI50 (CCRF-CEM) was 6.67 µM (inactive) and the GI50 (HCC 2998) was 20.7 µM (inactive). For the same compound, the GI50 (SW-620) was 32.7 µM (inactive), the GI50 (MDA-MB-231) was 2.21 µM (inactive) and the GI50 (SNB-19) was 24.4 µM (inactive). For the same compound, the GI50 (Hs-578T) was 19.9 µM (inactive), the GI50 (OVCAR-3) was 17.9 µM (inactive) and the GI50 (OVCAR-4) was 17.2 µM (inactive). The GI50 (DU-145) was 17.2 µM (inactive), the GI50 (MDA-MB-435) was 17.9 µM (inactive) and the GI50 (SK-MEL-28) was 18.9 µM (inactive). The GI50 (MDA-N) was 17.5 µM (inactive), the GI50 (OVCAR-5) was 19.2 µM (inactive) and the GI50 (M14) was 17.5 µM (inactive). The GI50 (SF-539) was 16.9 µM (inactive).
